Measured values published in ChEMBL document CHEMBL1143521, “Synthesis and antitumor activity of 7-ethyl-9-alkyl derivatives of camptothecin” (Bioorg Med Chem Lett, 2005).

Legend:
[1] = system: Bel-7402; experiment: Inhibitory concentration against human Bel-7402 liver cancer cell line; assay type: functional, cell-based
[2] = system: HCT-116; experiment: Inhibitory concentration against human HCT116 colon cancer cell line; assay type: functional, cell-based
[3] = system: Mus musculus; experiment: Percent tumor-weight inhibition in mouse tumor sarcoma-180 model after intraperitoneal administration of 75 mg/kg dose in comparison with control mice; assay type: functional
[4] = system: Mus musculus; experiment: Percent change in body-weight of mouse tumor sarcoma-180 model after intraperitoneal administration of 75 mg/kg dose; assay type: functional
[5] = system: Mus musculus; experiment: Average tumor weight in mouse tumor sarcoma-180 model after intraperitoneal administration of 75 mg/kg dose; assay type: functional
[6] = Lethal toxicity against mouse tumor sarcoma-180 model after intraperitoneal administration of 75 mg/kg dose expressed as number of deaths out of […]; assay type: organism-based; parameters: dose 75 mg/kg, route intraperitoneal; settings: in vivo, ip
[7] = system: Mus musculus; experiment: Percent change in body-weight of mouse tumor sarcoma-180 model after intraperitoneal administration of 5 mg/kg dose; assay type: functional
[8] = Lethal toxicity against mouse tumor sarcoma-180 model after intraperitoneal administration of 5 mg/kg dose expressed as number of deaths out of 10 mice; assay type: organism-based; parameters: dose 5 mg/kg, route intraperitoneal; settings: in vivo, ip
[9] = system: Mus musculus; experiment: Percent tumor-weight inhibition in mouse tumor sarcoma-180 model after intraperitoneal administration of 5 mg/kg dose in comparison with control mice; assay type: functional
[10] = system: Mus musculus; experiment: Average tumor weight in mouse tumor sarcoma-180 model after intraperitoneal administration of 5 mg/kg dose; assay type: functional
[11] = system: Mus musculus; experiment: Average tumor weight in mouse tumor sarcoma-180 model after intraperitoneal administration of 2.5 mg/kg dose; assay type: functional
[12] = system: Mus musculus; experiment: Percent tumor-weight inhibition in mouse tumor sarcoma-180 model after intraperitoneal administration of 2.5 mg/kg dose in comparison with control mice; assay type: functional
[13] = system: Mus musculus; experiment: Percent change in body-weight of mouse tumor sarcoma-180 model after intraperitoneal administration of 2.5 mg/kg dose; assay type: functional
[14] = Lethal toxicity against mouse tumor sarcoma-180 model after intraperitoneal administration of 2.5 mg/kg dose expressed as number of deaths out of 10 mice; assay type: organism-based; parameters: dose 2.5 mg/kg, route intraperitoneal; settings: in vivo, ip

Compound | IC50 [1] | IC50 [2] | also measured
CCc1c(O)ccc2nc3c(c(CC)c12)Cn1c-3cc2c(c1=O)COC(=O)[C@]2(O)CC | 2010 nM | 23 nM | 
O=c1[nH]cc(F)c(=O)[nH]1 [FLUOROURACIL] |  |  | TWI [3]: 53.9%; BWC [4]: 74%; TW [5]: 1.52; Lethal toxicity [6]: 0
CC[C@@]1(O)C(=O)OCc2c1cc1n(c2=O)Cc2cc3c(CN(C)C)c(O)ccc3nc2-1 [TOPOTECAN] | 3980 nM | 100 nM | 
CCc1c2c(nc3ccc(O)cc13)-c1cc3c(c(=O)n1C2)COC(=O)[C@]3(O)CC [7-ETHYL-10-HYDROXYCAMPTOTHECIN] | 3190 nM | 7 nM | BWC [7]: 45%; Lethal toxicity [8]: 0; TWI [9]: 41.5%; TW [10]: 1.93
CCCc1c(OC)ccc2nc3c(c(CC)c12)Cn1c-3cc2c(c1=O)COC(=O)[C@]2(O)CC | 3840 nM | 153 nM | 
C=CCc1c(OC)ccc2nc3c(c(CC)c12)Cn1c-3cc2c(c1=O)COC(=O)[C@]2(O)CC | 2160 nM | 68 nM | 
C=CCc1c(O)ccc2nc3c(c(CC)c12)Cn1c-3cc2c(c1=O)COC(=O)[C@]2(O)CC | 2750 nM | 14 nM | TW [11]: 0.62; TWI [12]: 81.2%; BWC [13]: 9%; Lethal toxicity [14]: 0
CCCc1c(O)ccc2nc3c(c(CC)c12)Cn1c-3cc2c(c1=O)COC(=O)[C@]2(O)CC | 3010 nM | 12 nM | 
CC[C@@]1(O)C(=O)OCc2c1cc1n(c2=O)Cc2cc3cc(O)ccc3nc2-1 [HYDROXYCAMPTOTHECIN] | 2470 nM | 148 nM | 
CCc1c(OC)ccc2nc3c(c(CC)c12)Cn1c-3cc2c(c1=O)COC(=O)[C@]2(O)CC | 2400 nM | 61 nM | 
